Assay results: ChEMBL document CHEMBL3774385, “Small molecule glycoconjugates with anticancer activity” (Eur J Med Chem, 2016)
The source made the active and inactive calls. No cut-off for these calls is given here.

Columns and labels:
[1] = Antiproliferative activity against p53 deficient human HCT116 cells after 96 hrs by MTS assay; format: functional, cell-based; settings: HCT-116, 96 h
[2] = Antiproliferative activity against p53 expressing human HCT116 cells after 96 hrs by MTS assay; format: functional, cell-based; settings: HCT-116, 96 h
HCT-116 [3] = test: Induction of apoptosis in p53 expressing human HCT116 cells assessed as late apoptotic cells at IC50 after 48 hrs by acridine orange/ethidium bromide staining-based epifluorescence microscopy; format: functional, cell-based
HCT-116 [4] = test: Induction of apoptosis in p53 expressing human HCT116 cells assessed as caspase-3/7 activation at IC50 after 30 to 48 hrs by luminescence assay; format: functional, cell-based
[5] = Binding affinity to Zn2+ assessed as compound-metal complex formation at compound to metal ratio of 1:0, 1:1, 2:1, 3:1, 4:1 and 5:1 after 30 mins by UV-visible spectrophotometry
Calf thymus DNA = test: Binding affinity to calf thymus DNA assessed as hypochromism at 3 to 25 uM after 1.5 hrs by UV-visible spectrophotometry; format: nucleic-acid assay; settings: Bos taurus
HCT-116 [6] = test: Induction of apoptosis in p53 expressing human HCT116 cells assessed as early apoptotic cells at IC50 after 48 hrs by acridine orange/ethidium bromide staining-based epifluorescence microscopy; format: functional, cell-based
NHDF = test: Cytotoxicity against human NHDF cells after 96 hrs by MTS assay; format: cell-based
HCT-116 [7] = test: Induction of apoptosis in p53 deficient human HCT116 cells assessed as caspase-3/7 activation at IC50 after 30 to 48 hrs by luminescence assay; format: functional, cell-based
HCT-116 [8] = test: Antiproliferative activity against p53 expressing human HCT116 cells at IC50 after 3 to 96 hrs by MTS assay in presence of 10 to 50 uM glucose; format: functional, cell-based
HCT-116 [9] = test: Induction of reactive oxygen species generation in p53 expressing human HCT116 cells at 2 times IC50 for 24 hrs by inverted fluorescent microscopy; format: functional, cell-based
[10] = Antiproliferative activity against p53 deficient human HCT116 cells at IC50 after 96 hrs by MTS assay in presence of 20 uM CuCl2; format: functional, HCT-116
HCT-116 [11] = test: Induction of intracellular reactive oxygen species generation in p53 expressing human HCT116 cells at IC50 after 12 hrs by fluorescence-based plate reader analysis; format: functional, cell-based
[12] = Binding affinity to Cu2+ assessed as compound-metal complex formation at compound to metal ratio of 1:0, 1:1, 2:1, 3:1, 4:1 and 5:1 after 30 mins by UV-visible spectrophotometry
HCT-116 [13] = test: Decrease in GSH level in p53 expressing human HCT116 cells at IC50 after 12 hrs by luminescence analysis; format: functional, cell-based
HCT-116 [14] = test: Antiproliferative activity against p53 deficient human HCT116 cells at IC50 after 96 hrs by MTS assay in presence of 50 uM ZnCl2; format: functional, cell-based
HCT-116 [15] = test: Induction of intracellular reactive oxygen species generation in p53 expressing human HCT116 cells at IC50 after 6 hrs by fluorescence-based plate reader analysis; format: functional, cell-based
HCT-116 [16] = test: Antiproliferative activity against p53 expressing human HCT116 cells at IC50 after 96 hrs by MTS assay in presence of 50 uM of ZnCl2; format: functional, cell-based
[17] = Antiproliferative activity against p53 expressing human HCT116 cells at IC50 after 96 hrs by MTS assay in presence of 20 uM CuCl2; format: functional, HCT-116

Work on `CC(=O)OC[C@H]1O[C@@H](SC(=O)c2ccc3nc(C)ccc3c2O)[C@H](OC(C)=O)[C@@H](OC(C)=O)[C@@H]1OC(C)=O` yielded an IC50 [1] greater than 25 µM and an IC50 [2] greater than 25 µM.
For `CC(=O)OC[C@H]1O[C@@H](Sc2ccc(NC(=O)c3ccc4ccc(C)nc4c3O)cn2)[C@H](OC(C)=O)[C@@H](OC(C)=O)[C@@H]1OC(C)=O`, the Activity (HCT-116 [3]) was “Active”, the Activity (HCT-116 [4]) was “inactive” and the IC50 [1] was 4.42 µM. For the same molecule, the IC50 [2] was 4.88 µM, the Activity [5] was “Active” and the Activity (Calf thymus DNA) was 41.5%. The Activity (HCT-116 [6]) was “Active”, the IC50 (NHDF) was 11.5 µM and the Activity (HCT-116 [7]) was “inactive”. For the same molecule, the Activity (HCT-116 [8]) was “inactive”, the Activity (HCT-116 [9]) was “Active” and the Activity [10] was 75%. The Activity (HCT-116 [11]) was “Active”, the Activity [12] was “Active” and the Activity (HCT-116 [13]) was “Active”. For the same molecule, the Activity (HCT-116 [14]) was “inactive”.
For `CC(=O)OC[C@H]1O[C@@H](Sc2ccc(N)cn2)[C@H](OC(C)=O)[C@@H](OC(C)=O)[C@@H]1OC(C)=O`, the IC50 [1] was greater than 150 µM and the IC50 [2] was greater than 150 µM.
In the case of `COc1cccc2c1C(=O)c1c(O)c3c(c(O)c1C2=O)C[C@@](O)(C(=O)CO)C[C@@H]3O[C@H]1C[C@H](N)[C@H](O)[C@H](C)O1` [DOXORUBICIN], the IC50 [1] is reported as 0.38 µM, the IC50 [2] is reported as 0.34 µM and the IC50 (NHDF) is reported as 3.38 µM.
For `CC(=O)OC[C@H]1O[C@@H](N)[C@H](OC(C)=O)[C@@H](OC(C)=O)[C@@H]1OC(C)=O`, the IC50 [1] was greater than 300 µM and the IC50 [2] was greater than 450 µM.
`Cc1ccc2c(O)c(C(=O)O)ccc2n1` gave an IC50 [1] greater than 750 µM and an IC50 [2] greater than 750 µM.
For `Cc1ccc2ccc(C(=O)O)c(O)c2n1`, the IC50 [1] was greater than 750 µM and the IC50 [2] was greater than 750 µM.
With `CC(=O)OC[C@H]1O[C@@H](Sc2ccc(N)cc2)[C@H](OC(C)=O)[C@@H](OC(C)=O)[C@@H]1OC(C)=O` the IC50 [1] was greater than 150 µM and the IC50 [2] was greater than 150 µM.
Work on `Cc1ccc2ccc(C(=O)N[C@@H]3O[C@H](CO)[C@@H](O)[C@H](O)[C@H]3O)c(O)c2n1` yielded an IC50 [1] greater than 750 µM and an IC50 [2] greater than 750 µM.
Work on `CC(=O)OC[C@H]1O[C@@H](SC(=O)c2ccc3ccc(C)nc3c2O)[C@H](OC(C)=O)[C@@H](OC(C)=O)[C@H]1OC(C)=O` yielded an IC50 [1] greater than 25 µM and an IC50 [2] greater than 25 µM.
With `CC(=O)OC[C@H]1O[C@@H](SC(=O)c2ccc3ccc(C)nc3c2O)[C@H](OC(C)=O)[C@@H](OC(C)=O)[C@@H]1OC(C)=O` the IC50 [1] was greater than 25 µM and the IC50 [2] was greater than 25 µM.
`CC(=O)OC[C@H]1O[C@@H](Sc2ccc(NC(=O)c3ccc4nc(C)ccc4c3O)cc2)[C@H](OC(C)=O)[C@@H](OC(C)=O)[C@@H]1OC(C)=O` showed an IC50 [1] greater than 25 µM and an IC50 [2] greater than 25 µM.
In the case of `CC(=O)OC[C@H]1O[C@@H](Sc2ccc(N)cn2)[C@H](OC(C)=O)[C@@H](OC(C)=O)[C@H]1OC(C)=O`, the IC50 [1] is reported as greater than 150 µM and the IC50 [2] is reported as greater than 150 µM.
`CC(=O)OC[C@H]1O[C@@H](Sc2ccc(N)cc2)[C@H](OC(C)=O)[C@@H](OC(C)=O)[C@H]1OC(C)=O` gave an IC50 [1] greater than 150 µM and an IC50 [2] greater than 150 µM.
In the case of `CC(=O)OC[C@H]1O[C@@H](Sc2ccc(NC(=O)c3ccc4ccc(C)nc4c3O)cn2)[C@H](OC(C)=O)[C@@H](OC(C)=O)[C@H]1OC(C)=O`, the Activity (HCT-116 [3]) is reported as “Active”, the Activity (HCT-116 [4]) is reported as “inactive” and the IC50 [1] is reported as 7.05 µM. For the same molecule, the IC50 [2] was 7.86 µM, the Activity [5] was “Active” and the Activity (Calf thymus DNA) was 26.1%. For the same molecule, the Activity (HCT-116 [6]) was “Active”, the IC50 (NHDF) was 9.32 µM and the Activity (HCT-116 [7]) was “inactive”. The Activity (HCT-116 [8]) was “inactive”, the Activity (HCT-116 [9]) was “Active” and the Activity [12] was “Active”.
`CC(=O)OC[C@H]1O[C@@H](SC(=O)c2ccc3nc(C)ccc3c2O)[C@H](OC(C)=O)[C@@H](OC(C)=O)[C@H]1OC(C)=O` gave an IC50 [1] greater than 25 µM and an IC50 [2] greater than 25 µM.
With `CC(=O)OC[C@H]1O[C@@H](Sc2ccc(NC(=O)c3ccc4ccc(C)nc4c3O)cc2)[C@H](OC(C)=O)[C@@H](OC(C)=O)[C@H]1OC(C)=O` the Activity (HCT-116 [3]) was “Active”, the Activity (HCT-116 [4]) was “Active” and the IC50 [1] was 8.94 µM. The IC50 [2] was 12.6 µM, the Activity [5] was “Active” and the Activity (Calf thymus DNA) was 17.2%. For the same molecule, the Activity (HCT-116 [6]) was “Active”, the IC50 (NHDF) was 13.3 µM and the Activity (HCT-116 [8]) was “inactive”. The Activity (HCT-116 [9]) was “Active” and the Activity [12] was “Active”.
In the case of `CC(=O)OC[C@H]1O[C@@H](NC(=O)c2ccc3ccc(C)nc3c2O)[C@H](OC(C)=O)[C@@H](OC(C)=O)[C@@H]1OC(C)=O`, the Activity (HCT-116 [15]) is reported as “Active”, the Activity (HCT-116 [3]) is reported as “Active” and the Activity (HCT-116 [4]) is reported as “Active”. For the same molecule, the IC50 [1] was 15.1 µM, the IC50 [2] was 13.6 µM and the Activity [5] was “Active”. For the same molecule, the Activity (Calf thymus DNA) was 16.2%, the Activity (HCT-116 [6]) was “Active” and the IC50 (NHDF) was 23.6 µM. For the same molecule, the Activity (HCT-116 [16]) was “inactive”, the Activity (HCT-116 [9]) was “Active” and the Activity [12] was “Active”. For the same molecule, the Activity (HCT-116 [13]) was “Active” and the Activity [17] was 50%.
In the case of `CC(=O)OC[C@H]1O[C@@H](S)[C@H](OC(C)=O)[C@@H](OC(C)=O)[C@@H]1OC(C)=O`, the IC50 [1] is reported as greater than 500 µM and the IC50 [2] is reported as greater than 750 µM.
In the case of `CC(=O)OC[C@H]1O[C@@H](Sc2ccc(NC(=O)c3ccc4ccc(C)nc4c3O)cc2)[C@H](OC(C)=O)[C@@H](OC(C)=O)[C@@H]1OC(C)=O`, the Activity (HCT-116 [3]) is reported as “Active”, the Activity (HCT-116 [4]) is reported as “inactive” and the IC50 [1] is reported as 10.7 µM. For the same molecule, the IC50 [2] was 12 µM, the Activity [5] was “Active” and the Activity (Calf thymus DNA) was 10.7%. The Activity (HCT-116 [6]) was “Active”, the IC50 (NHDF) was 12.4 µM and the Activity (HCT-116 [7]) was “inactive”. The Activity (HCT-116 [9]) was “Active” and the Activity [12] was “Active”.
With `Cc1ccc2ccc(C(=O)N[C@@H]3O[C@H](COCc4ccccc4)[C@H](OCc4ccccc4)[C@H](OCc4ccccc4)[C@H]3OCc3ccccc3)c(O)c2n1` the Activity (HCT-116 [3]) was “Active”, the Activity (HCT-116 [4]) was “Active” and the IC50 [1] was 11.7 µM. For the same molecule, the IC50 [2] was 11.6 µM, the Activity [5] was “Active” and the Activity (Calf thymus DNA) was 9%. For the same molecule, the Activity (HCT-116 [6]) was “Active”, the IC50 (NHDF) was 18.6 µM and the Activity (HCT-116 [7]) was “Active”. For the same molecule, the Activity (HCT-116 [8]) was “inactive”, the Activity (HCT-116 [9]) was “Active” and the Activity (HCT-116 [11]) was “Active”. For the same molecule, the Activity [12] was “Active” and the Activity (HCT-116 [13]) was “Active”.
